This note sets out measurements from article PMC11678778, “Anti-Inflammatory Properties of Novel 1,2-Benzothiazine Derivatives and Their Interaction with Phospholipid Model Membranes” (Membranes, 2024).

The target of one assay is T1, COX-1 (Ovis aries, UniProt P05979).
T1 construct: purchased
T1 sequence (P05979 25-600): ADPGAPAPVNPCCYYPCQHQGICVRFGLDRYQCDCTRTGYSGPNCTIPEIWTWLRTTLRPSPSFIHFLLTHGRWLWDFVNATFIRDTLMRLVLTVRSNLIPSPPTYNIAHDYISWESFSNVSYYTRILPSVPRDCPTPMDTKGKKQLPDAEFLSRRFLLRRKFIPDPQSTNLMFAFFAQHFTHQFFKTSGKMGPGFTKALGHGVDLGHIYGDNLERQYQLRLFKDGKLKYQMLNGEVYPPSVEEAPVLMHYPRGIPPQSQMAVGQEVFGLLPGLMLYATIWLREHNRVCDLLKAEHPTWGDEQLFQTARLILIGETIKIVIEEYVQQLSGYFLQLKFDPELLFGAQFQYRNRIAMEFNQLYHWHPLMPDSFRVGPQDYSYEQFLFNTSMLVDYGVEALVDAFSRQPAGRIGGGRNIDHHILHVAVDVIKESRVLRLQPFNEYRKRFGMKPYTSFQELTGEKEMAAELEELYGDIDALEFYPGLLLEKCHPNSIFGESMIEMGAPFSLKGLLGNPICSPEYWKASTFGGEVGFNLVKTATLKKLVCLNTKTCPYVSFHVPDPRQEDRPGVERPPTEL
Briefly: Cyclooxygenase inhibition assay (colorimetric, peroxidase activity, TMPD oxidation). To be noted: incubation 2 min; mean ± SD. Format: biochemical. As for the experimental part:
(§1) To conduct the cyclooxygenase inhibition assay, we utilized a kit from the manufacturer that contained 150 μL of assay buffer, 10 μL of heme, and 10 μL of either COX-1 or COX-2 enzyme. Each sample was prepared in triplicate, with the addition of 10–500 μM of the test compounds and […] of solvents such as methanol, ethanol, and dimethyl sulfoxide (DMSO). We then added 20 μL of N,N,N cent,N cent-tetramethyl-p-phenylenediamine (TMPD) to each well. Arachidonic acid was introduced to initiate the reaction, which was allowed to proceed for 2 min. Following the incubation period, the extent of TMPD oxidation was measured using the multiscan Go microplate reader at a wavelength of 590 nm (Thermo Fisher Scientific, Waltham, MA, USA).
Cyclooxygenase (COX) peroxidase activity was evaluated using a colorimetric assay. […] The incubation period was maintained at 2 min, following the manufacturer’s guidelines. […] We determined the concentrations of all compounds required for 50% inhibition of COX-1 and COX-2. IC50 values were then calculated, and the ratio of IC50 values for both cyclooxygenase isoforms allowed us to assess the selectivity of the tested structures for COX-1 and COX-2.

The target of the next assay is T2, COX-2 (Homo sapiens, UniProt P35354).
T2 construct: purchased
T2 sequence (P35354 18-604): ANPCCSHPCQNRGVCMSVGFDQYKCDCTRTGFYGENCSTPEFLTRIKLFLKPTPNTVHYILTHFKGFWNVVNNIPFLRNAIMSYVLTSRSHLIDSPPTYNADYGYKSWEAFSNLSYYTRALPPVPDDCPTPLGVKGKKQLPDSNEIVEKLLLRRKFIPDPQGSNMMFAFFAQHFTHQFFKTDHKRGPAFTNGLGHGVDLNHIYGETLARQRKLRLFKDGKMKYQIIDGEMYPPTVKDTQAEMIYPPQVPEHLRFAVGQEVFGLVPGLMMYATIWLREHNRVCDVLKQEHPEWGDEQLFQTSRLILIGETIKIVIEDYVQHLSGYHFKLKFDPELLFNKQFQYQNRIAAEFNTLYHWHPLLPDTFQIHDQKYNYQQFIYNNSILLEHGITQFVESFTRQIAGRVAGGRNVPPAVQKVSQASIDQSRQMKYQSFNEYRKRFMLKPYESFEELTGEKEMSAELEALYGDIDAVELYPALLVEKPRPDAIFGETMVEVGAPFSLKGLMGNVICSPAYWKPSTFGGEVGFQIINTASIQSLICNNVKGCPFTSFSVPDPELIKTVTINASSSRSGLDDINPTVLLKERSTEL
The description is as above. Type of assay: biochemical. As to conditions: for IC50: incubation 2 min, mean ± SD; for Selectivity Ratio: (COX-2/COX-1): ratio of IC50 values. As for the experimental part:
as §1
Cyclooxygenase (COX) peroxidase activity was evaluated using a colorimetric assay. […] The incubation period was maintained at 2 min, following the manufacturer’s guidelines. […] IC50 values were then calculated, and the ratio of IC50 values for both cyclooxygenase isoforms allowed us to assess the selectivity of the tested structures for COX-1 and COX-2.

A short description of assay [1]: ABTS radical scavenging assay. As to conditions: 30 min incubation; mean ± SD, n = 3. Type of assay: physicochemical. As for the experimental part:
The activity of ABTS (2,2′-azino-bis(3-ethylbenzothiazoline-6-sulphonic acid)) was assessed to evaluate the radical scavenging potential of the synthesized compounds. The ABTS reagent was generated by combining equal volumes of a 7 mM aqueous solution of ABTS and a 2.45 mM potassium persulfate solution. This mixture was then incubated in the dark at room temperature for 16 h. Following incubation, the solution was diluted with ethanol until the absorbance reached approximately 0.7 ± 0.05 at a wavelength of 734 nm. The stock solutions of the synthesized compounds in DMSO were serially diluted to obtain concentrations ranging from 500 μM to 10 μM in ethanol. The ABTS reagent was then treated with various concentrations of each compound and incubated in the dark at room temperature. After 30 min of incubation, the absorbance was measured at 734 nm, using ethanol as the blank control. Ascorbic acid served as the standard for comparison, and the IC50 values for the synthesized compounds were calculated using the following Equation (3):(3) %ABTS scavenging activity=Abscontrol−Abs sample/Abs (control)×100

Each structure is given as a SMILES string.

As a reminder, the IC50 is the midpoint of a concentration-inhibition curve. A high value points to weaker potency in that assay.

In the case of `COc1ccc(C(=O)C2=C(O)c3ccccc3S(=O)(=O)N2CCCN2CCN(c3ccccn3)CC2)cc1` [BS23], the IC50 against COX-1 is 242 ± 4.2 µM; against COX-2, 13.2 ± 2.1 µM; in assay [1] it was 54.2 ± 2.2 µM. Also, the “Selectivity Ratio: (COX-2/COX-1)” value at COX-2 worked out at 0.05.
The matching figures for `O=C(C1=C(O)c2ccccc2S(=O)(=O)N1CC(=O)N1CCN(c2ccccc2)CC1)c1ccc(Br)cc1` [BS28, 3-(4-Bromobenzoyl)-2-[2-(4-phenylpiperazin-1-yl)-2-oxoethyl]-4-hydroxy-2H-1,2-benzothiazine 1,1-dioxide]: 95.9 ± 5.7 µM, 12.5 ± 1.9 µM, 88.4 ± 1.9 µM and 0.13.
